Structures are written as SMILES. A value given as a limit tells only on which side of the number the result lay.

Holding throughout (assay type): functional
For experiment [1], the system named is Rattus norvegicus. Put plainly: Inhibition of passive cutaneous anaphylaxis (PCA) in Charles Rivers Sprague-Dawley rat after intravenous administration; value range […].
For experiment [2], the system named is Rattus norvegicus. Description: Inhibition of passive cutaneous anaphylaxis (PCA) in Charles Rivers Sprague-Dawley rat after intravenous administration.
The subject of experiment [3] is Rattus norvegicus. Description: Inhibition of passive cutaneous anaphylaxis (PCA) in Charles Rivers Sprague-Dawley rat after intravenous administration; value range from 0.3 to 0.5.
Experiment [4] deals with Rattus norvegicus. Put plainly: Inhibition of passive cutaneous anaphylaxis (PCA) in Charles Rivers Sprague-Dawley rat after intravenous administration; value range from 1.6 to 3.0.
The test system of experiment [5] is Rattus norvegicus. Description: Inhibition of passive cutaneous anaphylaxis (PCA) in Charles Rivers Sprague-Dawley rat after intravenous administration; value range from 4.1 to 5.8.
In experiment [6] the test system is Rattus norvegicus. Put plainly: Inhibition of passive cutaneous anaphylaxis (PCA) in Charles Rivers Sprague-Dawley rat after intravenous administration; value range from 0.1 to 0.4.
The subject of experiment [7] is Rattus norvegicus. Put plainly: Inhibition of passive cutaneous anaphylaxis (PCA) in Charles Rivers Sprague-Dawley rat after intravenous administration; value range from 0.8 to 1.4.
Experiment [8] has as its system Rattus norvegicus. Put plainly: Inhibition of passive cutaneous anaphylaxis (PCA) in Charles Rivers Sprague-Dawley rat after intravenous administration; value range from 0.03 to 0.6.
Experiment [9] relates to Rattus norvegicus. Put plainly: Inhibition of passive cutaneous anaphylaxis (PCA) in Charles Rivers Sprague-Dawley rat after intravenous administration; value range from 0.4 to 0.9.
Experiment [10] relates to Rattus norvegicus. Description: Inhibition of passive cutaneous anaphylaxis (PCA) in Charles Rivers Sprague-Dawley rat after intravenous administration; value range from 1.4 to 2.4.
In experiment [11] the test system is Rattus norvegicus. Put plainly: Inhibition of passive cutaneous anaphylaxis (PCA) in Charles Rivers Sprague-Dawley rat after intravenous administration; value range from 0.05 to 0.6.
The subject of experiment [12] is Rattus norvegicus. Description: Inhibition of passive cutaneous anaphylaxis (PCA) in Charles Rivers Sprague-Dawley rat after intravenous administration; value range from 0.8 to 1.6.
Experiment [13] deals with Rattus norvegicus. Put plainly: Inhibition of passive cutaneous anaphylaxis (PCA) in Charles Rivers Sprague-Dawley rat after intravenous administration; value range from 0.2 to 0.3.
Experiment [14] concerns Rattus norvegicus. Description: Inhibition of passive cutaneous anaphylaxis (PCA) in Charles Rivers Sprague-Dawley rat after intravenous administration; value range from 1.8 to 2.7.
Experiment [15] deals with Rattus norvegicus. Put plainly: Inhibition of passive cutaneous anaphylaxis (PCA) in Charles Rivers Sprague-Dawley rat after intravenous administration; value range from 1.4 to 2.1.
Experiment [16] deals with Rattus norvegicus. Put plainly: Inhibition of passive cutaneous anaphylaxis (PCA) in Charles Rivers Sprague-Dawley rat after intravenous administration; value range from 1.1 to 1.8.
Experiment [17] relates to Rattus norvegicus. Description: Inhibition of passive cutaneous anaphylaxis (PCA) in Charles Rivers Sprague-Dawley rat after intravenous administration; value range from 0.8 to 1.5.
In experiment [18] the test system is Rattus norvegicus. Description: Inhibition of passive cutaneous anaphylaxis (PCA) in Charles Rivers Sprague-Dawley rat after intravenous administration; value range from 6.2 to 7.8.
In experiment [19] the test system is Rattus norvegicus. Put plainly: Inhibition of passive cutaneous anaphylaxis (PCA) in Charles Rivers Sprague-Dawley rat after intravenous administration; value range from 1.9 to 22.5.
Experiment [20] relates to Rattus norvegicus. Put plainly: Inhibition of passive cutaneous anaphylaxis (PCA) in Charles Rivers Sprague-Dawley rat after intravenous administration; value range from 0.3 to 0.8.
Experiment [21] deals with Rattus norvegicus. Put plainly: Inhibition of passive cutaneous anaphylaxis (PCA) in Charles Rivers Sprague-Dawley rat after intravenous administration; value range from 1.5 to 2.9.

Take `COc1ccc2oc3nnnc-3c(O)c2c1`: in the experiment on Rattus norvegicus [1], it took a dose of 1.7 mg/kg to reach the 50% effect level (ED50).

In turn, `CCCc1ccc(OC)c2c(O)c3nnnc-3oc12` had an ED50 in the experiment with Rattus norvegicus [2] of over 10 mg/kg.

In the experiment with Rattus norvegicus [3], `COc1ccc2c(O)c3nnnc-3oc2c1C` registered an ED50 of 0.4 mg/kg.

In the experiment with Rattus norvegicus [4], `Oc1c2nnnc-2oc2ccc3c(c12)CCCC3` gave an ED50 of 2.1 mg/kg.

Take `Cc1ccc2oc3nnnc-3c(O)c2c1`: the ED50 in the experiment on Rattus norvegicus [5] was determined as 5 mg/kg.

Regarding `Cc1c(OS(C)(=O)=O)ccc2c(O)c3nnnc-3oc12`, it took a dose of 0.2 mg/kg to reach the 50% effect level with Rattus norvegicus [6] (ED50).

In the case of `CCCc1c(O)ccc2c(O)c3nnnc-3oc12`, the 50% effect level in the experiment with Rattus norvegicus [7] (ED50) was put at a dose of 1.1 mg/kg.

As for `COc1ccc2c(O)c3nnnc-3oc2c1`, in the experiment with Rattus norvegicus [8], the ED50 was 0.3 mg/kg.

In the experiment on Rattus norvegicus [9], `Cc1ccc2oc3nnnc-3c(O)c2c1C` displayed an ED50 of 0.6 mg/kg.

`Oc1ccc2c(O)c3nnnc-3oc2c1` gave an ED50 with Rattus norvegicus [10] of 1.8 mg/kg.

Turning to `Cc1ccc2c(O)c3nnnc-3oc2c1C`, in the experiment with Rattus norvegicus [11], the ED50 came out at 0.3 mg/kg.

In the experiment on Rattus norvegicus [12], `Cc1cc(C)c2c(O)c3nnnc-3oc2c1C` gave an ED50 of 1.2 mg/kg.

As for `CS(=O)(=O)Oc1ccc2c(O)c3nnnc-3oc2c1`, the ED50 in the experiment on Rattus norvegicus [13] is 0.2 mg/kg.

For the compound `Cc1c(O)ccc2c(O)c3nnnc-3oc12`, the ED50 in the experiment on Rattus norvegicus [14] was 2.2 mg/kg.

Compound `Oc1cccc2oc3nnnc-3c(O)c12` gave an ED50 in the experiment with Rattus norvegicus [15] of 1.7 mg/kg.

For the compound `Oc1c2nnnc-2oc2ccccc12`, the ED50 in the experiment with Rattus norvegicus [16] was found to be 1.4 mg/kg.

`CCCc1c(OC)ccc2c(O)c3nnnc-3oc12` yielded an ED50 with Rattus norvegicus [17] of 1 mg/kg.

Turning to `CCCc1ccc(O)c2c(O)c3nnnc-3oc12`, it took a dose of 7 mg/kg to reach the 50% effect level in the experiment on Rattus norvegicus [18] (ED50).

As for `Cc1cc2oc3nnnc-3c(O)c2cc1C`, the ED50 with Rattus norvegicus [3] was 0.4 mg/kg.

`COc1cccc2oc3nnnc-3c(O)c12`: the ED50 in the experiment with Rattus norvegicus [19] was 3.5 mg/kg.

`Oc1c2nnnc-2oc2cc3c(cc12)CCCC3` gave an ED50 with Rattus norvegicus [20] of 0.6 mg/kg.

In the experiment with Rattus norvegicus [21], `O=C([O-])c1cc(=O)c2c(OCC(O)COc3cccc4oc(C(=O)[O-])cc(=O)c34)cccc2o1.[Na+].[Na+]` [CROMOLYN SODIUM] registered an ED50 of 2 mg/kg.

Source of the values: ChEMBL document CHEMBL1122330, “Studies on v-triazoles. 7. Antiallergic 9-oxo-1H,9H-benzopyrano[2,3-d]-v-triazoles” (1983).
